Measurements from EP4745137A1 (Gluetacs Therapeutics (Shanghai) Co., Ltd., priority 2023, dated 2025).

How the values were obtained:
[1] = molecular target: T1, human Cereblon WT GST-tagged protein (Homo sapiens, UniProt Q96SW2); test: CRBN-binding affinity by HTRF (CEREBLON BINDING kit); conditions: HTRF inhibitory activity, CEREBLON BINDING kit; read-out: HTRF IC50
T1 construct: purchased CISBIO 64BDCRBNPEH

[2] = test system: Jurkat; test: Tumor cell proliferation inhibition (CellTiter-Meiluncell Luminescent Cell Viability Assay), Jurkat; conditions: Homo sapiens, 96 h, read-out: inhibitory activity (IC50, nM) against tumor cells proliferation, Jurkat
[3] = test system: MM.1R; test: Tumor cell proliferation inhibition (CellTiter-Meiluncell Luminescent Cell Viability Assay), MM.1R; conditions: Homo sapiens, 96 h, read-out: inhibitory activity (IC50, nM) against tumor cells proliferation, MM.1R
Description: The tumor cells used herein were cultured in a cell culture medium listed in table 2 at 37°C in an incubator with 5% CO2. Prior to experimentation, all cell lines used were correctly identified by STR profiling, and tested negative for mycoplasma contamination using a mycoplasma detection kit through routine screenings.
On the following day, the test compounds of the present disclosure were subjected to serial dilution. […] Subsequently, 0.5 µL of the test compound dilution was transferred into the 96-well plate containing the cells, with each well containing 100 µL of cell culture medium. […] Into the 96-well plate, the diluted test compounds and corresponding detection reagents were added, resulting in final test compound concentrations of 500 nM and 10 nM, respectively. The experimental procedure is described below using the diluted 2 µM test compound as an example.
After the cells were treated with the compounds of the present disclosure for a specified period (the treatment durations were shown in Table 3), the cell viability assay reagent was added to the culture medium according to the kit's instructions to determine cell viability. […] All controls were treated using the same procedure as the compounds of the present disclosure. The growth inhibition curves for the compounds of the present disclosure were plotted using Prism GraphPad software, and the IC50 values were calculated therefrom.

[4] = test system: Vcap; test: Tumor cell proliferation inhibition (CellTiter-Meiluncell Luminescent Cell Viability Assay), Vcap; conditions: Homo sapiens, 96 h, read-out: inhibitory activity (IC50, nM) against tumor cells proliferation, Vcap
[5] = test system: CCRF-CEM; test: Tumor cell proliferation inhibition (CellTiter-Meiluncell Luminescent Cell Viability Assay), CCRF-CEM; conditions: Homo sapiens, 96 h, read-out: inhibitory activity (IC50, nM) against tumor cells proliferation, CCRF-CEM
[6] = molecular target: T2, IKZF3 (Homo sapiens, UniProt Q96SW2+Q9UKT9); test: Western-blot assay of substrate protein degradation in hPBMCs, IKZF3; type: cell-based; conditions: 24 hours of compound treatment, compounds tested at 50 nM and 500 nM (concentration of the table not stated)
T2 construct: endogenous in cells; host or cells: hPBMCs (Milecell Biotechnologies)

[7] = test system: CAL-62; test: Tumor cell proliferation inhibition (CellTiter-Meiluncell Luminescent Cell Viability Assay), CAL-62; conditions: Homo sapiens, CAL-62, 96 h, read-out: inhibitory activity (IC50, nM) against tumor cells proliferation, CAL-62
[8] = test system: Human acute T lymphocytic leukemia cells (Molt-4); test: Tumor cell proliferation inhibition (CellTiter-Meiluncell Luminescent Cell Viability Assay), Molt-4; conditions: MOLT-4, 96 h, read-out: inhibitory activity (IC50, nM) against tumor cells proliferation, Molt 4
[9] = molecular target: T3, IKZF1 (Homo sapiens, UniProt Q13422+Q96SW2); test: Western-blot assay of substrate protein degradation in hPBMCs, IKZF1; type: cell-based; conditions: 24 hours of compound treatment, compounds tested at 50 nM and 500 nM (concentration of the table not stated)
T3 construct: endogenous in cells; host or cells: hPBMCs (Milecell Biotechnologies)

[10] = molecular target: T4, GSPT1 (Homo sapiens, UniProt P15170+Q96SW2); test: Western-blot assay of substrate protein degradation in hPBMCs, GSPT1; type: cell-based; conditions: 24 hours of compound treatment, compounds tested at 50 nM and 500 nM (concentration of the table not stated)
T4 construct: endogenous in cells; host or cells: hPBMCs (Milecell Biotechnologies)

[11] = molecular target: T5, CK1α (Homo sapiens, UniProt P48729+Q96SW2); test: Western-blot assay of substrate protein degradation in hPBMCs, CK1α; type: cell-based; conditions: 24 hours of compound treatment, compounds tested at 50 nM and 500 nM (concentration of the table not stated)
T5 construct: endogenous in cells; host or cells: hPBMCs (Milecell Biotechnologies)

[12] = molecular target: T6, IKZF2 (Homo sapiens, UniProt Q96SW2+Q9UKS7); test: Western-blot assay of substrate protein degradation in hPBMCs, IKZF2; type: cell-based; conditions: 24 hours of compound treatment, compounds tested at 50 nM and 500 nM (concentration of the table not stated)
T6 construct: endogenous in cells; host or cells: hPBMCs (Milecell Biotechnologies)

[13] = molecular target: T7, WEE1 (Homo sapiens, UniProt P30291+Q96SW2); test: Western-blot assay of substrate protein degradation in hPBMCs, WEE1; type: cell-based; conditions: 24 hours of compound treatment, compounds tested at 50 nM and 500 nM (concentration of the table not stated)
T7 construct: endogenous in cells; host or cells: hPBMCs (Milecell Biotechnologies)

[14] = test system: Human breast cancer cells (MDA-MB-231); test: Tumor cell proliferation inhibition (CellTiter-Meiluncell Luminescent Cell Viability Assay), MDA-MB-231; conditions: MDA-MB-231, 96 h, read-out: inhibitory activity (IC50, nM) against tumor cells proliferation, MDA-MB-231
[15] = test system: TMD8; test: Tumor cell proliferation inhibition (CellTiter-Meiluncell Luminescent Cell Viability Assay), TMD8; conditions: Homo sapiens, TMD8, 96 h, read-out: inhibitory activity (IC50, nM) against tumor cells proliferation, TMD8
[16] = test system: NCI-H1975; test: Tumor cell proliferation inhibition (CellTiter-Meiluncell Luminescent Cell Viability Assay), NCI-H1975; conditions: Homo sapiens, NCI-H1975, 96 h, read-out: inhibitory activity (IC50, nM) against tumor cells proliferation, H1975

T2 sequence (Q9UKT9 whole entry): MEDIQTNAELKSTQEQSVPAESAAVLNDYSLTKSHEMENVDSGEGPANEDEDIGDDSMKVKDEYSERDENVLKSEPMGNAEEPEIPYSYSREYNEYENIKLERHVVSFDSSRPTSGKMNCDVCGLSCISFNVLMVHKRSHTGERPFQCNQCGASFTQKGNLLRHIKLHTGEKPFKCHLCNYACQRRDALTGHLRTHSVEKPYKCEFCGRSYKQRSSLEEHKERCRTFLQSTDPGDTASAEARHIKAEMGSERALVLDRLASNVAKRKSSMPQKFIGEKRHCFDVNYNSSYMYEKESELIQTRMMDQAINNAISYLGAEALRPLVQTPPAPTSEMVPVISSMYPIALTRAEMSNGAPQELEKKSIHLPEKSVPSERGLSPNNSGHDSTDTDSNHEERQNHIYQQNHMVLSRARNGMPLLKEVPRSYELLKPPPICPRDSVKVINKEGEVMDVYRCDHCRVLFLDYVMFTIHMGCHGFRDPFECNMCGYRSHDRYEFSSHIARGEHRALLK
T2 sequence (Q96SW2 whole entry): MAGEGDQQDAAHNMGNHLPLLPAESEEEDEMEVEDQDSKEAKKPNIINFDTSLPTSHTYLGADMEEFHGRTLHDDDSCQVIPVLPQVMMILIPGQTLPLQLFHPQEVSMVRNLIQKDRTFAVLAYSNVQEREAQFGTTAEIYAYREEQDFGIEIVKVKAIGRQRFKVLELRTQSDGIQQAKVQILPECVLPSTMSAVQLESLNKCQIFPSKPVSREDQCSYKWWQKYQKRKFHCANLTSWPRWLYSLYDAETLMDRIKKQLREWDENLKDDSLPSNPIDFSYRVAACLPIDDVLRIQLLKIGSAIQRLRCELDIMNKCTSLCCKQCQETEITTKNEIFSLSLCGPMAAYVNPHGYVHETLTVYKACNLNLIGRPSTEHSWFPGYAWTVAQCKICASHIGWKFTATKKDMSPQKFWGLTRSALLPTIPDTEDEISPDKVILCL
T2 sequence (Q16531 whole entry partner): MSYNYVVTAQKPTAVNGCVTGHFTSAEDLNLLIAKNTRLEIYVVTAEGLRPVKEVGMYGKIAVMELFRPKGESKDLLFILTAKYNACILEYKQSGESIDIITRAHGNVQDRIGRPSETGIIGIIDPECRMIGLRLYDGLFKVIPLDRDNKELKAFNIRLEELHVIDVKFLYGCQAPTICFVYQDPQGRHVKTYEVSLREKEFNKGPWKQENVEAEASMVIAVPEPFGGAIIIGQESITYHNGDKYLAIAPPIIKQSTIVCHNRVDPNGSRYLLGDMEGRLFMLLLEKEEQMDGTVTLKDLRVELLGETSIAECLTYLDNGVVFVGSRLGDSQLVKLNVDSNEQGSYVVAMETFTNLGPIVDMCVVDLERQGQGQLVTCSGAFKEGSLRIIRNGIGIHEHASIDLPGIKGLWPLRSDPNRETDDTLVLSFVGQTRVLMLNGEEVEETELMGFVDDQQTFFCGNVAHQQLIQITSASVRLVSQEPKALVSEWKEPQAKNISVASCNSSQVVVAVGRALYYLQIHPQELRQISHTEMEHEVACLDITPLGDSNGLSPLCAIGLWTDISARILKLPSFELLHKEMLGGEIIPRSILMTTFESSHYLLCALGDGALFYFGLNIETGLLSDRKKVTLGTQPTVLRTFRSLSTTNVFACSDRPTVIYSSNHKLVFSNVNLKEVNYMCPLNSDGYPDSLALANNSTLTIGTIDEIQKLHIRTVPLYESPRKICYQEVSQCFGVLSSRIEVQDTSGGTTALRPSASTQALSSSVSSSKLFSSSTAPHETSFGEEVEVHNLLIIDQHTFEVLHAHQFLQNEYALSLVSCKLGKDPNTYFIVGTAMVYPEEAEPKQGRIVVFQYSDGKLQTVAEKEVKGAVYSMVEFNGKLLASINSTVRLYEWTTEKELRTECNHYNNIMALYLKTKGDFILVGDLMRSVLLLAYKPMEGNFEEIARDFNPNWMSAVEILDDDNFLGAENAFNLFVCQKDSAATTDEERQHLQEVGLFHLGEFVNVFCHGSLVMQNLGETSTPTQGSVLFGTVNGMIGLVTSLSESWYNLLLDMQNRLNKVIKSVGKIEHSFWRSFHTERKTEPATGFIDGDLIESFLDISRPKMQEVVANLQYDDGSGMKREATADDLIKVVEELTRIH
T7 sequence (P30291 whole entry): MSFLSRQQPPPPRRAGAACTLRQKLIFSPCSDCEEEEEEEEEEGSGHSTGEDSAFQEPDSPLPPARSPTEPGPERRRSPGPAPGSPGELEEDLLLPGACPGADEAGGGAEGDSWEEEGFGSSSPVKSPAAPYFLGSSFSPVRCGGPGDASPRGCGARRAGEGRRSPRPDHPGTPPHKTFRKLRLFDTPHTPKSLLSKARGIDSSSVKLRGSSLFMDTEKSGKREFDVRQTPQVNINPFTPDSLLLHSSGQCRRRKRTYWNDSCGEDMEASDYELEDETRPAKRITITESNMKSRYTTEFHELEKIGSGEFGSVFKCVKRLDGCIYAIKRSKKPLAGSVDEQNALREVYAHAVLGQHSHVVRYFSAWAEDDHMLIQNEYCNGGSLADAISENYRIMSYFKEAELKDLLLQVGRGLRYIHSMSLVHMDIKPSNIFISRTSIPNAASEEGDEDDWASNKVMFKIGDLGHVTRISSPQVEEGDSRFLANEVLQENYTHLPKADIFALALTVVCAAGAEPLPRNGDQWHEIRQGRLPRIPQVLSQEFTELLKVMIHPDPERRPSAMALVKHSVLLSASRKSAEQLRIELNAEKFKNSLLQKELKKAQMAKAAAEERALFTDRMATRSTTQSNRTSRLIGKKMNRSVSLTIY
T7 sequence (Q96SW2 whole entry): as the sequence (Q96SW2 whole entry) above
T7 sequence (Q16531 whole entry partner): as the sequence (Q16531 whole entry partner) above
T5 sequence (P48729 whole entry): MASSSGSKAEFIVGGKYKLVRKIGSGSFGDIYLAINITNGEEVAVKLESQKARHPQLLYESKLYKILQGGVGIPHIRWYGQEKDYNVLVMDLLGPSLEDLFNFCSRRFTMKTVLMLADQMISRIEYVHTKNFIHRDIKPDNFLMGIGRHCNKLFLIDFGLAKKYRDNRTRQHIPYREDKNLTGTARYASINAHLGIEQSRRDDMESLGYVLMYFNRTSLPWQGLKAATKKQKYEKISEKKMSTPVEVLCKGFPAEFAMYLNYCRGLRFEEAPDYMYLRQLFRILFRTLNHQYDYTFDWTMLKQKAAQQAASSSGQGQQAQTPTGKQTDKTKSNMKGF
T5 sequence (Q96SW2 whole entry): as the sequence (Q96SW2 whole entry) above
T5 sequence (Q16531 whole entry partner): as the sequence (Q16531 whole entry partner) above
T3 sequence (Q13422 whole entry): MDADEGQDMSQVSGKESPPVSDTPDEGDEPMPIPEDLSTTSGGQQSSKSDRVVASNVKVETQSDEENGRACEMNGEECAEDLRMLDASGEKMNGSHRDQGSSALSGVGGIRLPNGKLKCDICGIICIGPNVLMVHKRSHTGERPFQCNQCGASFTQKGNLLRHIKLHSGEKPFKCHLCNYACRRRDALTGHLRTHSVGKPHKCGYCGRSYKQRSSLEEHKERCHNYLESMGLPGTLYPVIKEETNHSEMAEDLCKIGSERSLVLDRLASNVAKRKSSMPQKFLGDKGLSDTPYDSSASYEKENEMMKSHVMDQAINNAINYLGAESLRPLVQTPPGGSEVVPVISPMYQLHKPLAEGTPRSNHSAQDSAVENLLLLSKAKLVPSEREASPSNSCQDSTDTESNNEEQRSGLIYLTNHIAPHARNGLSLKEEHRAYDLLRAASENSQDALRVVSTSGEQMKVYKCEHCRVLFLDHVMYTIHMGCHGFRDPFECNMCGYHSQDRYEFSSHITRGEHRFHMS
T3 sequence (Q96SW2 whole entry): as the sequence (Q96SW2 whole entry) above
T3 sequence (Q16531 whole entry partner): as the sequence (Q16531 whole entry partner) above
T6 sequence (Q9UKS7 whole entry): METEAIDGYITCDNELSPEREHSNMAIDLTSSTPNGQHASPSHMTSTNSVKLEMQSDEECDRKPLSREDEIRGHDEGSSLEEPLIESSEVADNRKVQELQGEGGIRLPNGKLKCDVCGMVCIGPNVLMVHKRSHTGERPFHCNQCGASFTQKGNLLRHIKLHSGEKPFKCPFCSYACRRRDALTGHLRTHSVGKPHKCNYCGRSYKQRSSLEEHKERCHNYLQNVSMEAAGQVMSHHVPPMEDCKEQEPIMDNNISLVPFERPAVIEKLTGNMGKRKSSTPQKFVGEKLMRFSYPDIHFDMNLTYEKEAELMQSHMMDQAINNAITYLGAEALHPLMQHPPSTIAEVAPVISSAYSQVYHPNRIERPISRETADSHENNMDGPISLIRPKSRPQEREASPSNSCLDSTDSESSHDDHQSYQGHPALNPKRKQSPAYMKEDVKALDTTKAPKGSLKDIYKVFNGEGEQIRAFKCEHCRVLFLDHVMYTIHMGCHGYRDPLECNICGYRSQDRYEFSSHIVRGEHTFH
T6 sequence (Q96SW2 whole entry): as the sequence (Q96SW2 whole entry) above
T6 sequence (Q16531 whole entry partner): as the sequence (Q16531 whole entry partner) above
T1 sequence (Q96SW2 whole entry): as the sequence (Q96SW2 whole entry) above

| IC50 [1] | IC50 [2] | IC50 [3] | IC50 [4] | IC50 [5] | IC50 [7] | IC50 [8] | IC50 [14] | IC50 [15] | IC50 [16] | Structure (SMILES) | IKZF3 substrate protein remaining % [6] | IKZF 1 substrate protein remaining % [9] | GSPT1 substrate protein remaining % [10] | CK1a substrate protein remaining % [11] | IKZF2 substrate protein remaining % [12] | Weel substrate protein remaining % [13] |
| --- | --- | --- | --- | --- | --- | --- | --- | --- | --- | --- | --- | --- | --- | --- | --- | --- |
| 1000 to 1500 nM | 10 to 50 nM | 10 to 50 nM | 100 to 500 nM | 10 to 50 nM | 50 to 100 nM | 10 to 50 nM | – | – | – | Cc1ccccc1N1CCN(Cc2ccc3c(c2)CN(C2CCC(=O)NC2=O)C3=O)CC1 (stereo not shown) [GT-04461, 3-(1-oxo-5-((4-(o-tolyl)piperazin-1-yl)methyl)isoindolin-2-yl)piperidine-2,6-dione] | A (0% ≤ substrate protein remaining % ≤ 80%) | A (0% ≤ substrate protein remaining % ≤ 80%) | A (0% ≤ substrate protein remaining % ≤ 80%) | B (80%< substrate protein remaining %≤ 100%) | A (0% ≤ substrate protein remaining % ≤ 80%) | A (0% ≤ substrate protein remaining % ≤ 80%) |
| 500 to 1000 nM | 5 to 10 nM | 10 to 50 nM | – | – | 10 to 50 nM | 10 to 50 nM | 100 to 500 nM | – | 100 to 500 nM | O=C1CCC(N2Cc3cc(CN4CCN(c5ccc(F)cn5)CC4)ccc3C2=O)C(=O)N1 (stereo not shown) [GT-04531, 3-(5-((4-(5-fluoropyridin-2-yl)piperazin-1-yl)methyl)-1-oxoisoindolin-2-yl)piperidine-2,6-dione] | A (0% ≤ substrate protein remaining % ≤ 80%) | A (0% ≤ substrate protein remaining % ≤ 80%) | A (0% ≤ substrate protein remaining % ≤ 80%) | A (0% ≤ substrate protein remaining % ≤ 80%) | A (0% ≤ substrate protein remaining % ≤ 80%) | A (0% ≤ substrate protein remaining % ≤ 80%) |
| 500 to 1000 nM | 50 to 100 nM | 100 to 500 nM | 500 to 1000 nM | 50 to 100 nM | 500 to 1000 nM | 100 to 500 nM | – | – | – | COc1ccccc1N1CCN(Cc2ccc3c(c2)CN(C2CCC(=O)NC2=O)C3=O)CC1 (stereo not shown) [GT-04490, 3-(5-((4-(2-methoxyphenyl)piperazin-1-yl)methyl)-1-oxoisoindolin-2-yl)piperidine-2,6-dione] | B (80%< substrate protein remaining %≤ 100%) | B (80%< substrate protein remaining %≤ 100%) | A (0% ≤ substrate protein remaining % ≤ 80%) | A (0% ≤ substrate protein remaining % ≤ 80%) | A (0% ≤ substrate protein remaining % ≤ 80%) | B (80%< substrate protein remaining %≤ 100%) |

Further lines, the compound ahead of its results:

| Structure (SMILES) | IC50 [1] | IC50 [2] | IC50 [3] | IC50 [4] | IC50 [5] | IC50 [7] | IC50 [8] | IC50 [14] | IC50 [15] | IC50 [16] | IKZF3 substrate protein remaining % [6] | IKZF 1 substrate protein remaining % [9] | GSPT1 substrate protein remaining % [10] | CK1a substrate protein remaining % [11] | IKZF2 substrate protein remaining % [12] | Weel substrate protein remaining % [13] |
| --- | --- | --- | --- | --- | --- | --- | --- | --- | --- | --- | --- | --- | --- | --- | --- | --- |
| O=C1CCC(N2Cc3cc(CN4CCN(c5c[nH]c6ncccc56)CC4)ccc3C2=O)C(=O)N1 (stereo not shown) [GT-04601, 3-(5-((4-(1H-pyrrolo[2,3-b]pyridin-3-yl)piperazin-1-yl)methyl)-1-oxoisoindolin-2-yl)piperidine-2,6-dione] | < 500 nM | – | – | – | – | – | 100 to 500 nM | 500 to 1000 nM | 500 to 1000 nM | – | A (0% ≤ substrate protein remaining % ≤ 80%) | A (0% ≤ substrate protein remaining % ≤ 80%) | A (0% ≤ substrate protein remaining % ≤ 80%) | A (0% ≤ substrate protein remaining % ≤ 80%) | B (80%< substrate protein remaining %≤ 100%) | A (0% ≤ substrate protein remaining % ≤ 80%) |
| O=C1CCC(N2Cc3cc(CN4CCC(c5ccc(F)cc5)CC4)ccc3C2=O)C(=O)N1 (stereo not shown) [GT-04471, 3-(5-((4-(4-fluorophenyl)piperidin-1-yl)methyl)-1-oxoisoindolin-2-yl)piperidine-2,6-dione] | 500 to 1000 nM | 10 to 50 nM | 50 to 100 nM | 100 to 500 nM | 10 to 50 nM | 100 to 500 nM | 10 to 50 nM | – | – | – | A (0% ≤ substrate protein remaining % ≤ 80%) | A (0% ≤ substrate protein remaining % ≤ 80%) | A (0% ≤ substrate protein remaining % ≤ 80%) | B (80%< substrate protein remaining %≤ 100%) | A (0% ≤ substrate protein remaining % ≤ 80%) | A (0% ≤ substrate protein remaining % ≤ 80%) |
| Cc1cc(N2CCN(Cc3ccc4c(c3)CN(C3CCC(=O)NC3=O)C4=O)CC2)cs1 (stereo not shown) [GT-04549, 3-(5-((4-(5-methylthiophen-3-yl)piperazin-1-yl)methyl)-1-oxoisoindolin-2-yl)piperidine-2,6-dione] | 500 to 1000 nM | 5 to 10 nM | 100 to 500 nM | – | – | 10 to 50 nM | 5 to 10 nM | 100 to 500 nM | – | 100 to 500 nM | A (0% ≤ substrate protein remaining % ≤ 80%) | A (0% ≤ substrate protein remaining % ≤ 80%) | A (0% ≤ substrate protein remaining % ≤ 80%) | A (0% ≤ substrate protein remaining % ≤ 80%) | A (0% ≤ substrate protein remaining % ≤ 80%) | A (0% ≤ substrate protein remaining % ≤ 80%) |
| O=C1CCC(N2Cc3cc(CN4CCN(c5cc(Cl)ccn5)CC4)ccc3C2=O)C(=O)N1 (stereo not shown) [GT-04430, 3-(5-((4-(4-chloropyridin-2-yl)piperazin-1-yl)methyl)-1-oxoisoindolin-2-yl)piperidine-2,6-dione] | 500 to 1000 nM | 10 to 50 nM | 50 to 100 nM | 100 to 500 nM | 10 to 50 nM | 50 to 100 nM | 10 to 50 nM | – | – | – | A (0% ≤ substrate protein remaining % ≤ 80%) | A (0% ≤ substrate protein remaining % ≤ 80%) | A (0% ≤ substrate protein remaining % ≤ 80%) | B (80%< substrate protein remaining %≤ 100%) | A (0% ≤ substrate protein remaining % ≤ 80%) | B (80%< substrate protein remaining %≤ 100%) |
| O=C1CCC(N2Cc3cc(CN4CCC(c5ccc(Br)cc5)CC4)ccc3C2=O)C(=O)N1 (stereo not shown) [GT-04493, 3-(5-((4-(4-bromophenyl)piperidin-1-yl)methyl)-1-oxoisoindolin-2-yl)piperidine-2,6-dione] | 500 to 1000 nM | 10 to 50 nM | 10 to 50 nM | 100 to 500 nM | 10 to 50 nM | 10 to 50 nM | – | – | – | – | B (80%< substrate protein remaining %≤ 100%) | B (80%< substrate protein remaining %≤ 100%) | A (0% ≤ substrate protein remaining % ≤ 80%) | A (0% ≤ substrate protein remaining % ≤ 80%) | A (0% ≤ substrate protein remaining % ≤ 80%) | A (0% ≤ substrate protein remaining % ≤ 80%) |
